Values of other authors in patent US10137085B2, “Nanoemulsion for transdermal delivery and method of making the same” (Nano and Advanced Materials Institute Limited, priority 2014, dated 2018).
Counter-ions that a name gives are not always drawn. Like-named read-outs stand apart in the source and are kept apart here.

Experiments:
[1] = o/w microemulsion with oleyl alcohol and NMP, compared to aqueous solution

Row | enhancement of drug permeability [1] [fold] | increase of permeation efficiency through skin (solid-in-oil nanodispersion vs control aqueous solution) | increase of permeation efficiency through skin (solid-in-oil nanodispersion with urea as enhancer vs control aqueous solution, after 24 h) | SMILES
1 | 520 | – | – | COc1ccc([C@@H]2Sc3ccccc3N(CCN(C)C)C(=O)[C@@H]2OC(C)=O)cc1 [diltiazem HCl]
2 | 58 | – | – | C[C@]12CC[C@@H]3c4ccc(O)cc4CC[C@H]3[C@@H]1CC[C@@H]2O [estradiol]
3 | – | two- to three | approximately 8.8 fold | CN(Cc1cnc2nc(N)nc(N)c2n1)c1ccc(C(=O)N[C@@H](CCC(=O)O)C(=O)O)cc1 [methotrexate]
